{
  "source": "patent US20250127857A1",
  "about": "“A COMPOSITION COMPRISING IL-36 AND/OR IL-18 FOR USE IN TREATING OCULAR DISORDERS” (THE PROVOST, FELLOWS, FOUNDATION SCHOLARS, & THE OTHER …, priority 2021, published 2025)",
  "molecules": {"B1": {"name": "IL-1α: human IL-1α (R&D systems) (protein, UniProt P01583 113-271, looked up)", "Interleukin-1 alpha": "SAPFSFLSNVKYNFMRIIKYEFILNDALNQSIIRANDQYLTAAALHNLDEAVKFDMGAYKSSKDDAKITVILRISKTQLYVTAQDEDQPVLLKEMPEIPKTITGSETNLLFFWETHGTKNYFTSVAHPNLFIATKQDYWVCLAGGPPSITDFQILENQA"}},
  "key": {"[1]": {"test_system": "cldn5, tricellulin, ZO-1 and VE-cadherin mRNA in HRMEC", "assay": "Real-time qPCR of junction components", "assay_type": "cell-based, human", "conditions": "100 ng/ml IL-36β or 10 μM RepSox, 24 hours", "text": "[…]"}, "IL-36R": {"test_system": "IL-36R", "conditions": "HRMEC, VEGF treatment over timepoints"}, "HRMEC [2]": {"test_system": "HRMEC", "assay": "MTS assay of HRMEC proliferation with VEGF and IL-18", "assay_type": "cell-based, human", "conditions": "VEGF alone", "experimental": "FIG. 17 illustrates HRMEC proliferation in response to VEGF is enhanced with IL-18 pre-treatment, wherein HRMECs were treated with increasing concentrations of VEGF alone or with a 24 hour pre-treatment of IL-18 at 10, 100 or 1000 ng/ml, wherein increasing VEGF induced an increase in cell proliferation which was enhanced following IL-18 treatment;\nCell viability was assessed using the CellTiter 96 AQueous One Solution cell proliferation MTS assay (Promega) as per the manufacturer's instructions. Cell monolayers were treated for times indicated where treatment supplemented media was then removed and incubated with 20 μl of CellTiter 96 AQueous One Solution in 100 μl of complete growth medium in a humidified incubator at 37° C. with 5% CO2for 1-4 hours. The absorbance of each well was measured at 490 nm using a SynergyMX plate reader (Biotek, Gen5™)."}, "HRMEC [3]": {"test_system": "HRMEC", "assay": "Wound healing (scratch) assay in HRMEC, IL-18", "assay_type": "cell-based, human", "conditions": "IL-18, VEGF, bFGF each 50 ng/ml, closure expressed as % closure", "experimental": "FIG. 16 illustrates HRMEC migration in response to IL-18 and IL-1α stimulation, wherein confluent HRMEC monolayers were scratched with a pipette tip and treated with IL-18 (50 ng/ml) or IL-1α (10 ng/ml) along with bFGF (50 ng/ml) or VEGF (50 ng/ml) as positive controls, wherein images were taken immediately following scratch (0 hrs) and at 4, 8 and 24 hours following scratch, wherein images were analysed using ImageJ imaging software, wherein data are presented as mean±SEM of 6 separate experiments in triplicate, wherein data were analysed using 2way ANOVA with Dunnett's multiple comparison test. (*p<0.05, *p<0.01, ****p<0.0001);\nCells were seeded on to a 12-well plate and grown until they reached confluency. 24 hours prior to the scratch, culture medium was replaced with 0.5% Serum media without supplements for 24 hours to induce cell quiescence. Cell monolayers were scratched once down the centre of the well using a p200 pipette tip and washed once with warmed DPBS to remove debris then replaced with 0.5% serum supplemented media with experimental treatments. Images were acquired using an Olympus IX51 inverted microscope with Cell^A imaging software (Olympus). Images were taken at baseline immediately following scratch and at suitable timepoints for up to 24 (HRMECs) or 48 hours (BMVECs). The area within the scratch was quantified using ImageJ software, and each timepoint was normalised to its baseline and expressed as % closure."}, "occludin": {"test_system": "occludin", "assay": "Occludin expression in HRMEC (qPCR and immunoblotting)", "assay_type": "cell-based, human", "conditions": "for expression of tight junction protein occludin: single cytokine", "experimental": "FIG. 18 illustrates IL-18 drives expression of tight junction protein occludin and inhibits VEGF depletion of occluding, wherein HRMECS were treated with either VEGF, IL-18 or IL-1α for the timepoints indicated (top panel) and cells were prepared for RNA isolation and qPCR with expression of occluding measured, wherein HRMECs were treated with VEGF, IL-18 or IL-1 or combinations of these cytokines and cells were prepared for immunoblotting for expression of occludin and b-actin (lower panels);\nFollowing transfer, membranes were blocked by incubating in 5% non-fat dried milk (Marvel) in TBS-T for 1 hour at room temperature whilst shaking. Membranes were incubated with primary antibody diluted in either 5% Marvel or BSA, depending on antibody specification, overnight at 4° C. with gentle agitation. Primary antibody was recovered and stored at −20. Membranes were washed three times in TBS-T for 5 minutes and membranes were incubated with secondary antibody, diluted in 5% Marvel, for 1 hour at room temperature. Secondary antibody was removed and discarded, and excess secondary was removed from the membranes by three 5-minute washes in TBS-T.\nAll RT-PCR assays were carried out using the SensiFAST SYBR Hi-ROX Kit (Bioline) with primers designed using Primer-BLAST (NCBI). For each target a master-mix comprising of 4 μl SYBR Green mix, 0.5 μl of Forward primer (4 μM) and 0.5 μl of Reverse primer (4 μM) along and 3 μl of RNAse free H2O was prepared and mixed thoroughly by vortexing. 8 μl of master-mix was added to each well of a 0.1 mL MicroAMP® Fast 96-well Reaction Plate (Applied Biosystems), along with 2 μl of cDNA and sealed using Optical adhesive film (Applied Biosystems) and spun down for 30 seconds in a centrifuge fitted with microplate rotor (Eppendorf) before running. Plate were run using a QuantStudio 3 real-time PCR System (Applied Biosystems) or the StepOnePlus Real-Time PCR System (Applied Biosystems), with run conditions set as: 50° C. for 2 mins, 95° C. for 10 minutes, 40 cycles of 95° C. for 15 seconds then 60° C. for 1 minute. To assess the quality of Primers a melt-curve stage was added: 95° C. for 1 second, 60° C. for 20 seconds, 95° C. for 1 second. Data were analysed using the QuantStudio™ Design & Analysis software (Applied Biosystems) and using the comparative Ct (ΔΔCt) method where test samples were normalised to endogenous control (β-Actin) followed by normalising the ΔCt of test samples to sample control (untreated sample), then calculating 2^−ΔΔCt to find the relative fold change of test samples over sample control."}},
  "data": [
    {"molecule": "Cc1cccc(-c2[nH]ncc2-c2ccc3ncccc3n2)n1", "note": "[RepSox]", "values": [
      {"measurement": "ZO-1 transcript (qPCR)", "setting": "[1]", "value": "appeared unaffected"}
    ]},
    {"molecule": "VEGF", "values": [
      {"measurement": "IL-36R expression", "setting": "IL-36R", "value": "reduces IL-36R expression"},
      {"measurement": "HRMEC proliferation with increasing doses of VEGF", "setting": "HRMEC [2]", "value": "increase in proliferation up to 5 ng/ml"},
      {"measurement": "mean difference in wound closure vs no treatment (xdiff)", "setting": "HRMEC [3]; 8 hours post scratch", "value": "−9.35"},
      {"measurement": "mean difference in wound closure vs no treatment (xdiff)", "setting": "HRMEC [3]; 24 hours post scratch", "value": "−12.25"},
      {"measurement": "expression of tight junction protein occludin", "setting": "occludin", "value": "reduced expression of occludin"}
    ]},
    {"molecule": "FGF: bFGF (50 ng/ml) used as positive control in scratch assay", "values": [
      {"measurement": "mean difference in wound closure vs no treatment (xdiff)", "setting": "HRMEC [3]; 8 hours post scratch", "value": "−4.366"},
      {"measurement": "mean difference in wound closure vs no treatment (xdiff)", "setting": "HRMEC [3]; 24 hours post scratch", "value": "−28.4"}
    ]},
    {"molecule": "B1", "values": [
      {"measurement": "rescue of VEGF mediated occludin inhibition", "setting": "occludin; combination with VEGF, immunoblotting", "value": "does not rescue VEGF mediated occludin inhibition"},
      {"measurement": "expression of tight junction protein occludin", "setting": "occludin", "value": "reduced expression of occludin"}
    ]}
  ]
}
